Reference: ChEMBL document CHEMBL3044722, “Potent enantioselective auxin: indole-3-succinic acid” (2002)

How the values were obtained:
Type in all cases: functional
Fuchsia [1] = test: Induction of root growth in swingtime Fuchsia hybrida at 10^-8 M after 7 to 34 days relative to indole-3-butyric acid
Fuchsia [2] = test: Induction of root growth in varigated Fuchsia hybrida at 10^-8 M after 7 to 34 days relative to indole-3-butyric acid
Fuchsia [3] = test: Induction of root growth in swingtime Fuchsia hybrida at 10^-7 M after 7 to 34 days relative to indole-3-butyric acid
Fuchsia [4] = test: Induction of root growth in varigated Fuchsia hybrida at 10^-7 M after 7 to 34 days relative to indole-3-butyric acid

| SMILES | Ratio (Fuchsia [1]) | Ratio (Fuchsia [2]) | Ratio (Fuchsia [3]) | Ratio (Fuchsia [4]) |
| --- | --- | --- | --- | --- |
| O=C(O)C[C@H](C(=O)O)c1c[nH]c2ccccc12 | 4.8 | 4.6 | 5.7 | 3.8 |
| O=C(O)C[C@@H](C(=O)O)c1c[nH]c2ccccc12 | 7.1 | 4.4 | 5.6 | 0.7 |
| O=C(O)CC(C(=O)O)c1c[nH]c2ccccc12 (racemic) | – | – | 7 | – |
| O=C(O)Cc1c[nH]c2ccccc12 [INDOLE-3-ACETIC ACID] | – | – | 0 | 0 |
